Where a SMILES comes first, the peptide text is derived from it.
Tests used:
[1] = test system: C. elegans strain CL2006 (human Aβ42 in body wall muscle cells); experiment: Paralysis assay in C. elegans CL2006 fed peptide-producing E. coli OP50; assay type: in vivo, Caenorhabditis elegans; settings: fed throughout lifespan with E. coli OP50 producing the peptide
Excerpt: To evaluate the protective effects of the selected cyclic peptides against Aβ aggregation and toxicity in vivo, the inventors employed two established models of AD in the nematode worm Caenorhabditis elegans. The conservation of genetic and metabolic pathways between C. elegans and mammals, in combination with its completely characterized nervous and muscular system, its easy visualization and simple manipulation, has nominated C. elegans as an excellent model for neurodegenerative diseases including AD, while chemical screening against Aβ-induced toxicity in C. elegans is increasingly used in AD drug discovery. The inventors performed initially a paralysis assay in CL2006, a strain where human Aβ42 is constitutively expressed in the body wall muscle cells of the animals and Aβ aggregate formation is accompanied by adult-onset paralysis. […] To evaluate the state of Aβ aggregation in vivo, we utilized the strain CL2331, which expresses an Aβ3-42-GFP fusion in its body wall muscle cells upon temperature up-shift.

[2] = test system: C. elegans strain CL4176 (human Aβ42, heat-inducible); experiment: Paralysis assay in C. elegans CL4176; assay type: in vivo, Caenorhabditis elegans; settings: synthetic AβC5-34 10 μM, AβC5-116 5 μM; temperature up-shift
Procedure: We followed standard procedures for C. elegans strains maintenance at 16° C. The following strains were used: CL2179: dvIs179 [myo-3p::GFP::3′UTR(long)+rol-6(su1006)] (available on the world wide web at: cgc.cbs.umn.edu/strain.php?id=26134); CL2331: dvIs37 [myo-3p::GFP::Aβ(3-42)+rol-6(su1006)] (available on the world wide web at: cgc.cbs.umn.edu/strain.php?id=26135); CL4176: smg-1(cc546) I; dvIs27 [myo-3::Aβ(1-42)-let 3′UTR(pAF29); pRF4 (rol-6(su1006)] (available on the world wide web at: cgc.cbs.umn.edu/strain.php?id=7663).
For treatments with synthetic cyclic peptides, nematodes were exposed to the indicated AβC5-34 and AβC5-116 concentrations per NGM plate. Stock solutions of the two chemically synthesized pure peptides were obtained after dissolution in DMSO and stored at −20° C. The appropriate amount of compound or DMSO (control cultures) was added onto an E. coli OP50 bacterial lawn. […] Treatment and control plates were handled, scored and assayed in parallel.
Synchronized CL4176 animals (150-300 animals per condition) were transferred to NGM plates containing synthetic AβC5-34, AβC5-116 or 0.26% DMSO at 16° C. for 48 h before transgene induction via temperature up-shift to 25° C. […] Treatment and control plates were handled, scored and assayed in parallel. […] Nematodes were scored as paralyzed upon failure to move their half end-body upon prodding. […]

SOD1(A4V) [3] = target: T1, SOD1(A4V) (Homo sapiens, UniProt P00441, A5V); experiment: Circular dichroism of isolated SOD1(A4V) with cyclic peptide; assay type: biochemical; settings: 40 μM SOD1(A4V), 25° C., 90 d
T1 construct: polyHis; made in house; host or cells: E. coli Origami 2(DE3)
T1 sequence (P00441 whole entry A5V): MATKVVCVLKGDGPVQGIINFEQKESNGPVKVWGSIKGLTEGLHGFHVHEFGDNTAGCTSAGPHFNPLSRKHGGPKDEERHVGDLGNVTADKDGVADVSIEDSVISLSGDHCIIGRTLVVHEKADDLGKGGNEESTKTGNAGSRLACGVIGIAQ
Procedure: (§1) SOD1 or mutants thereof were overexpressed from the appropriate pET-SOD1 or PASK-SOD1 vectors in E. coli Origami 2(DE3) cells in LB medium containing 50 μg/mL kanamycin (for pET-SOD1) or 100 μg/mL ampicillin (for pASK-SOD1), 200 μM CuCl2, and 200 μM ZnCl2 by the addition of 0.01 mM IPTG (for pET-SOD1) or 0.2 μg/mL anhydrotetracycline (aTc) (for pASK-SOD1), either at 37° C. for 2-3 h or at 18° C. for about 16 h. Origami 2(DE3) cells were utilized in order to provide an oxidizing cytoplasmic environment in order to promote correct formation of disulfide bonds, which are required for proper SOD1 folding and function. Under these conditions, bacterially produced SOD1 is produced in dimeric and enzymatically active form, while it simultaneously co-exists with misfolded, soluble and insoluble SOD1 oligomeric/aggregated species (FIG. 3C). […]
Appropriate amounts of synthetic cyclic peptides were added to either 40 μM SOD1(A4V) or 50 μM Aβ solutions at the desired cyclic peptide:target protein molar ratio. SOD1(A4V) structural changes were monitored for 90 d at 25° C., under quiescent conditions. Aβ structural changes were monitored for 30 d at 33° C. under quiescent conditions. CD spectra in the range 190-260 nm were recorded on a JASCO J-715 spectropolarimeter (Jasco Co., Japan) using quartz cuvettes with 1 mm path length. […]

SOD1(A4V) [4] = target: T1, SOD1(A4V); experiment: Filter retardation assay of SOD1(A4V); assay type: biochemical; settings: 25 d at 37° C.
Procedure: as §1, with “3C). Thus, the acquired protein is found in a state that resembles the conditions encountered in human cells under stressful or pathogenic conditions. The appearance of misfolded SOD1 oligomers/aggregates is enhanced with increasing incubation temperatures.” for “3C).”

C[C@@H]1NC(=O)[C@H](CO)NC(=O)[C@H]([C@@H](C)O)NC(=O)[C@@H]2CCCN2C(=O)[C@H](CO)NC1=O [AβC5-34, cyclo-SASPT] (cyclo(ASPTS))
appearance of paralysis phenotype, CL2006 [1]: significant delay
appearance of paralysis phenotype, CL4176 [2]: significant delay

C[C@@H]1NC(=O)[C@H]([C@@H](C)O)NC(=O)[C@H](CCCNC(=N)N)NC(=O)[C@H](CC(=O)O)NC(=O)[C@H](Cc2ccccc2)NC1=O [AβC5-116, cyclo-TAFDR] (cyclo(AFDRT))
appearance of paralysis phenotype, CL2006 [1]: significant delay
appearance of paralysis phenotype, CL4176 [2]: significant delay

cyclo-TWSVW (cyclic) [SOD1C5-4]
time-dependent conformational transition indicative of SOD1(A4V) aggregation (SOD1(A4V) [3]): significantly delayed
interaction with SOD1(A4V) by CD spectroscopy (SOD1(A4V) [3]; 1:1 and 5:1 peptide:SOD1(A4V)): interacts with SOD1(A4V)
formation of large, amyloid-like SOD1(A4V) aggregates by filter retardation assay (SOD1(A4V) [4]): dramatically decreased

— US12559863B2, “Macrocyclic modulators of disease associated protein misfolding and aggregation” (RESQ BIOTECH, priority 2017, dated 2026)
